Patent US20240167922A1, “TRANSPARENTIZING REAGENT AND TRANSPARENTIZING METHOD” (KYOTO UNIVERSITY, priority 2021, published 2024)

How the values were obtained:
[1] = Test for decolorizing agent (opacity); details: pasta immersed in the agent 5 days, then SoROCS 3 days; mean±SD of three experiments; water control 1.079±0.002
Protocol: Pasta samples made from durum wheat were fixed in 4% (wt/wt) PFA/PBS at 30° C. for 1.5 hours, and washed twice in D-PBS. […] Values represent mean ±SD of three independent experiments.

[2] = Measurement of opacity of noodle samples after optical clearing; details: Example 6: 3M to 4M aqueous solutions, 30° C. for 3 days after fixation
Protocol: ClearSee was prepared by mixing xylitol powder [Nacalai tesque, 36718-65; final concentration 10% (wt/vol)], sodium deoxycholate [Nacalai tesque, 10712-96; final concentration 15% (wt/vol)], and urea [Nacalai tesque, 35905-35; final concentration 25% (wt/vol)] in Milli-Q water.
The opacity of the samples was determined using a cooled CCD camera system (GE Healthcare, ImageQuant LAS 4000). […] Then, the sample was digitised by the CCD camera which was cooled to −25° C. with a lens (F0.85 43 mm) using white transillumination. […] The opacity of the sample was calculated by normalising the gray value of the sample with that of the background using free software (Fiji). The contrast C, which represents the difference in gray level, was calculated according to the following equation (1) from an image of the samples laid with a film on which a grid pattern was printed. The plot profile was measured using Fiji software.
ClearSee is a reagent that is able to make plant samples transparent as described in Non-patent Literature 1, and aims to remove autofluorescence of chlorophyll from green leaves. To evaluate the transparency of the noodle samples, the opacity of the transmitted light image was quantified.
The noodle samples were fixed and then immersed in each clearing reagent at 30° C. for 3 days, and the opacity was measured. As controls, the opacity of the noodle sample just after fixation and the noodle sample immersed in D-PBS instead of the clearing reagent was measured. […] Values in the figure represent mean±SD of three independent experiments.

[3] = Test for defatting agent (opacity); details: fried noodles immersed in the agent 5 days, then SoROCS 3 days; mean±SD of three experiments; water control 1.120±0.006
Protocol: Wheat noodle samples fried in vegetable oil were fixed in 4% (wt/wt) PFA/PBS at 30° C. for 1.5 hours and washed twice in D-PBS. […] Values represent mean ±SD of three independent experiments.

[4] = water at 20° C.; cited from earlier work

SMILES	optical clearing of noodle samples [2]	also measured
CCCCC(O)CO (stereo not shown) [1,2-hexanediol]		opacity [1]: 1.041±0.002
Oc1ccccc1O [catechol]	cleared	
O=C([O-])c1ccccc1C(=O)[O-].[Na+].[Na+] [disodium phthalate]	cleared	
C=C(C)[C@H]1CC=C(C)CC1 [limonene]		opacity [3]: 1.089±0.004
O=C([O-])c1ccccc1O.[Li+] [lithium salicylate]	cleared	
Oc1cccc(O)c1O [pyrogallol]	cleared	
Oc1cccc(O)c1 [resorcinol]	cleared	
O=C([O-])c1cccc(O)c1.[Na+] [sodium 3-hydroxybenzoate]	cleared	
O=C([O-])c1ccc(O)cc1.[Na+] [sodium 4-hydroxybenzoate]	cleared	
O=C([O-])c1ccccc1O.[Na+] [sodium salicylate]		solubility in water [4]: about 4.125 M
